Key:
Assay in all cases: Eurofins kinase selectivity profile against 380 other human recombinant kinases (Table S2)
Format in all cases: biochemical
[1] = target: T1, 380 human recombinant protein kinases (Homo sapiens, UniProt Q8WU08); settings: STK32A(h), read-out: Inhibition rate (%)
T1 construct: purchased Eurofins (Celle Lévescault)
Procedure, shortened: (§1)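 Profiling against 380 human recombinant kinases carried out by Eurofins at various compound concentrations.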

[2] = target: T2, 380 human recombinant protein kinases (Homo sapiens, UniProt P41240); settings: CSK(h), read-out: Inhibition rate
T2 construct: purchased Eurofins (Celle Lévescault)
T2 sequence (P41240 whole entry): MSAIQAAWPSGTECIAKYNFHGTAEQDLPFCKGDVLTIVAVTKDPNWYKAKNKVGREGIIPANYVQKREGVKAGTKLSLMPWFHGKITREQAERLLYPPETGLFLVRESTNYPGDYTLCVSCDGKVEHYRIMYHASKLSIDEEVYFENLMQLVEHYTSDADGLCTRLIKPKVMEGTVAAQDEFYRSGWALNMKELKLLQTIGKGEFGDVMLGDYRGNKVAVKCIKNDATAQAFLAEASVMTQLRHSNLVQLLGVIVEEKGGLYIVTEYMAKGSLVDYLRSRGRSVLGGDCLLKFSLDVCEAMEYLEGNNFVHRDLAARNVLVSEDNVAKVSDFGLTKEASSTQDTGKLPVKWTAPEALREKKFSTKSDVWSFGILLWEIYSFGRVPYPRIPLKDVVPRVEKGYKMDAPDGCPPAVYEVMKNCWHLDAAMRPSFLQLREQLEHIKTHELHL
Procedure, shortened: as §1

[3] = target: T3, 380 human recombinant protein kinases (Homo sapiens, UniProt O00444); settings: Plk4(h), read-out: Inhibition rate
T3 construct: purchased Eurofins (Celle Lévescault)
T3 sequence (O00444 1-970): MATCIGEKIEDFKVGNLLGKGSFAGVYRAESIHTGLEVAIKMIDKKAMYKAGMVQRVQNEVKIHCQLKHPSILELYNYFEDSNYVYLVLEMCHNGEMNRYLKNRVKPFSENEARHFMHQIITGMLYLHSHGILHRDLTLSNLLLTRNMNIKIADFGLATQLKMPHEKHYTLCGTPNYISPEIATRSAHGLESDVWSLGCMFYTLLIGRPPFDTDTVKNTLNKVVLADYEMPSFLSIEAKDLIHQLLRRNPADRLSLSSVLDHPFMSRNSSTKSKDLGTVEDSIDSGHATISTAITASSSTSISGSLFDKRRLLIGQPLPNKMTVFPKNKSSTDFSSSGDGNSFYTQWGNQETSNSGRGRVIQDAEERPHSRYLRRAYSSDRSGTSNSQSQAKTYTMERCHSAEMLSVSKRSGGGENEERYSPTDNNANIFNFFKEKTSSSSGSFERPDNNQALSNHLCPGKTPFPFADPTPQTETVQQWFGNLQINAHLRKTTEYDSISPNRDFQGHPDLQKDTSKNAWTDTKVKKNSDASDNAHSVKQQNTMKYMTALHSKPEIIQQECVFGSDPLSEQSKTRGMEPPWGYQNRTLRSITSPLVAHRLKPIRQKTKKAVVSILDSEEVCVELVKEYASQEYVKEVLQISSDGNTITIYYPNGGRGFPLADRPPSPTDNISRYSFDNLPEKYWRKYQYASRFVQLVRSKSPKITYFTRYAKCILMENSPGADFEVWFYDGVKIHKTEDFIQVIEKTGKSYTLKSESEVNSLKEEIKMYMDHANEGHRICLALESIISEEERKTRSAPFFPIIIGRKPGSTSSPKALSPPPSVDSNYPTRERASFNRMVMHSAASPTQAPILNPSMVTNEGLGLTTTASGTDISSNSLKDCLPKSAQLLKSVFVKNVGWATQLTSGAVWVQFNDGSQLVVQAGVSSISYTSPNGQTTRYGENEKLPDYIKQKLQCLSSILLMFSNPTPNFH
Procedure, shortened: as §1

[4] = target: T4, 380 human recombinant protein kinases (Homo sapiens, UniProt Q15303); settings: ErbB4(h), read-out: Inhibition rate
T4 construct: purchased Eurofins (Celle Lévescault)
T4 sequence (Q15303 26-1308): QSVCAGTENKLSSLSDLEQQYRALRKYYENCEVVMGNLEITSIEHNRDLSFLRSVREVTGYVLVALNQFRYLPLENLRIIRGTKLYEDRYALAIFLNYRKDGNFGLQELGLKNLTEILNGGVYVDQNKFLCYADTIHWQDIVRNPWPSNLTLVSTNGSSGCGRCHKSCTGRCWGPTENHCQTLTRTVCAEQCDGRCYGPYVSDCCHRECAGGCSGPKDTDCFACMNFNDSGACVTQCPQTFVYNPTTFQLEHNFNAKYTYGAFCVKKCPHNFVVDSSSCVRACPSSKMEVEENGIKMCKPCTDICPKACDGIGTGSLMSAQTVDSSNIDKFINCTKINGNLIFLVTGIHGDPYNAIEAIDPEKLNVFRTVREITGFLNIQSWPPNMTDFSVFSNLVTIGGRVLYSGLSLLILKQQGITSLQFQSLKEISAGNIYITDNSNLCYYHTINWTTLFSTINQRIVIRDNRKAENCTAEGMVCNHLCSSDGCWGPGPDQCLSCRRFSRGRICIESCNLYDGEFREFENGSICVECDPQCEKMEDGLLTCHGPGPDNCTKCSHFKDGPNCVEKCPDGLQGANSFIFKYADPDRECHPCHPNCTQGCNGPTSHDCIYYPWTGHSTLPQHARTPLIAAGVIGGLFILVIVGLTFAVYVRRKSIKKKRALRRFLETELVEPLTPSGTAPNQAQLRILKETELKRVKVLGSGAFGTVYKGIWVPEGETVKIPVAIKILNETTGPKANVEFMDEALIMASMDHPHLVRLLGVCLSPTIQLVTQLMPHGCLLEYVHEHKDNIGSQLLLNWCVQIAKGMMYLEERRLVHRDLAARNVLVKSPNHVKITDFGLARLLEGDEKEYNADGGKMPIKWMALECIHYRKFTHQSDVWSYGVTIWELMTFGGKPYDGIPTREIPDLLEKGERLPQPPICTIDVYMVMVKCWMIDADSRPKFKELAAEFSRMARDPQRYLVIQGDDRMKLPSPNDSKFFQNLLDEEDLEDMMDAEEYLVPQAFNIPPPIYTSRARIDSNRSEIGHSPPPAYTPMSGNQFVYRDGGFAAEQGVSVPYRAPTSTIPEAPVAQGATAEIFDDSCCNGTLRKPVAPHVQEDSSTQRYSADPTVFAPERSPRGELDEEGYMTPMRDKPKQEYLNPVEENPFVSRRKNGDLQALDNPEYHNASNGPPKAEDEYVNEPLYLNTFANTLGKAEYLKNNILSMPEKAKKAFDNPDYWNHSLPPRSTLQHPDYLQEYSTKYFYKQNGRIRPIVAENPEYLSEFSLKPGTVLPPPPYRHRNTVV
Procedure, shortened: as §1

[5] = target: T5, 380 human recombinant protein kinases (Homo sapiens, UniProt Q14289); settings: Pyk2(h), read-out: Inhibition rate
T5 construct: purchased Eurofins (Celle Lévescault)
T5 sequence (Q14289 whole entry): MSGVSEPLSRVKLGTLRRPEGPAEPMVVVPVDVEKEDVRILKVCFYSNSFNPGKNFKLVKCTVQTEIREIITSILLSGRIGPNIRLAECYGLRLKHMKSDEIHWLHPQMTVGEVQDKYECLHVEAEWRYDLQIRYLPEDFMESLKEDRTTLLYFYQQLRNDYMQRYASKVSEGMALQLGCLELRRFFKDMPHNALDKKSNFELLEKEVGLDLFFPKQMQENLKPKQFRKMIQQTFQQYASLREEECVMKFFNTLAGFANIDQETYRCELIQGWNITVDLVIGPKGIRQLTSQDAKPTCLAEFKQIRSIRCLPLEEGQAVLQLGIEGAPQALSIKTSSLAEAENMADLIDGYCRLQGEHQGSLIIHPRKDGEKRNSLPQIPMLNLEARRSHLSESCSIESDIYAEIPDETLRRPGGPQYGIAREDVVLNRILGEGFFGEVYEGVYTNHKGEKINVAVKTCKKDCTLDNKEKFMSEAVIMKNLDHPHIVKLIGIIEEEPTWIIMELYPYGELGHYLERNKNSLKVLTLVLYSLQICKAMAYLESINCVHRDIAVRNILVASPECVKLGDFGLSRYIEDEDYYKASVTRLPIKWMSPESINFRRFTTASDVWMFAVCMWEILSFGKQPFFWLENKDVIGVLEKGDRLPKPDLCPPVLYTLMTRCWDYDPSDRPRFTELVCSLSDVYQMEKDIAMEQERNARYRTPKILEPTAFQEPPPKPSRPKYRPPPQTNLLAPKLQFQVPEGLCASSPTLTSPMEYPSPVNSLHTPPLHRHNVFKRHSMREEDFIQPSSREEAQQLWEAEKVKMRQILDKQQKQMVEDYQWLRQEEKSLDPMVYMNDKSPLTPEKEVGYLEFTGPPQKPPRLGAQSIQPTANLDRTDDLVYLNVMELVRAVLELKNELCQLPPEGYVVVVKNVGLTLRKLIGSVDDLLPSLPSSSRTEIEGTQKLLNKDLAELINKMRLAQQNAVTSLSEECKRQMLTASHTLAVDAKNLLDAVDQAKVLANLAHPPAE
Procedure, shortened: as §1

[6] = target: T6, 380 human recombinant protein kinases (Homo sapiens, UniProt P17252); settings: PKCα(h), read-out: Inhibition rate
T6 construct: purchased Eurofins (Celle Lévescault)
Procedure, shortened: as §1

[7] = target: T7, 380 human recombinant protein kinases (Homo sapiens, UniProt Q15418); settings: Rsk1(h), read-out: Inhibition rate
T7 construct: purchased Eurofins (Celle Lévescault)
T7 sequence (Q15418 whole entry): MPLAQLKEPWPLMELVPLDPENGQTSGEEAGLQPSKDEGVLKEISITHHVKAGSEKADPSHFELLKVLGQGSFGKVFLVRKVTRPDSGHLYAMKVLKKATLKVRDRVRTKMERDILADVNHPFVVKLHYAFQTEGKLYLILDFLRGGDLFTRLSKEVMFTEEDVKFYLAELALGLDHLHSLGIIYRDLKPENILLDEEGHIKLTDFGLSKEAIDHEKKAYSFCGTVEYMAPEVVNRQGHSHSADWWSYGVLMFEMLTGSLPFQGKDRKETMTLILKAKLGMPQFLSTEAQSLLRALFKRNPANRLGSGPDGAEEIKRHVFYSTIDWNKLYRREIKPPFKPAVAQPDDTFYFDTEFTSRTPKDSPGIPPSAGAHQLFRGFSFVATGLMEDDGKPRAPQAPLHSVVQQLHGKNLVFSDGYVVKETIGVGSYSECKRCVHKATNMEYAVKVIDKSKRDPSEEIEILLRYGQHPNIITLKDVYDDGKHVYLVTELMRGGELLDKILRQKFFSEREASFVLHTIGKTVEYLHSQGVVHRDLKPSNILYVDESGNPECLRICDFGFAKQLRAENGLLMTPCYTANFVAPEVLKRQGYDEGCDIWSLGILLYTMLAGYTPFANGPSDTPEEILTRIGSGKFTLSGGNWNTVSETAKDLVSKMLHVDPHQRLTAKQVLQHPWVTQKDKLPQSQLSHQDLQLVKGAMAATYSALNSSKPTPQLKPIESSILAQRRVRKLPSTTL
Procedure, shortened: as §1

[8] = target: T8, 380 human recombinant protein kinases (Homo sapiens, UniProt O00443); settings: PI3KC2α(h), read-out: Inhibition rate (%)
T8 construct: purchased Eurofins (Celle Lévescault)
Procedure, shortened: as §1

[9] = target: T9, 380 human recombinant protein kinases (Homo sapiens, UniProt P10398); settings: A-Raf(h), read-out: Inhibition rate
T9 construct: purchased Eurofins (Celle Lévescault)
T9 sequence (P10398 1-606): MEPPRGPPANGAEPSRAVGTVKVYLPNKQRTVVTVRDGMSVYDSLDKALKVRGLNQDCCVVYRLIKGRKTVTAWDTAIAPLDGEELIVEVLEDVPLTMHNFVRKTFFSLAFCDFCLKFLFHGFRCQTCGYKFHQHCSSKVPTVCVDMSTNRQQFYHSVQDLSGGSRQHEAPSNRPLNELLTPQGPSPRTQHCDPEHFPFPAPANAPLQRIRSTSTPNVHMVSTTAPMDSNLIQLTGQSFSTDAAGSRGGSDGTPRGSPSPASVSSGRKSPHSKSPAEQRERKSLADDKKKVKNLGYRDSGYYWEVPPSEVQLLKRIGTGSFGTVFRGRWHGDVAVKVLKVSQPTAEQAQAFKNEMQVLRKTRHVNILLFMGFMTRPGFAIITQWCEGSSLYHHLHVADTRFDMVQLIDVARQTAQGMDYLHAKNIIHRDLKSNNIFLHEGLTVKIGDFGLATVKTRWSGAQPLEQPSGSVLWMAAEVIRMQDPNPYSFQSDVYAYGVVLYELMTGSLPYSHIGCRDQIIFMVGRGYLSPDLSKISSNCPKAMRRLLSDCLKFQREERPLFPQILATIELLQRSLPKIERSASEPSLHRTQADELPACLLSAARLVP
Procedure, shortened: as §1

[10] = target: T10, 380 human recombinant protein kinases (Homo sapiens, UniProt P48729); settings: CK1α(h), read-out: Inhibition rate
T10 construct: purchased Eurofins (Celle Lévescault)
T10 sequence (P48729 whole entry): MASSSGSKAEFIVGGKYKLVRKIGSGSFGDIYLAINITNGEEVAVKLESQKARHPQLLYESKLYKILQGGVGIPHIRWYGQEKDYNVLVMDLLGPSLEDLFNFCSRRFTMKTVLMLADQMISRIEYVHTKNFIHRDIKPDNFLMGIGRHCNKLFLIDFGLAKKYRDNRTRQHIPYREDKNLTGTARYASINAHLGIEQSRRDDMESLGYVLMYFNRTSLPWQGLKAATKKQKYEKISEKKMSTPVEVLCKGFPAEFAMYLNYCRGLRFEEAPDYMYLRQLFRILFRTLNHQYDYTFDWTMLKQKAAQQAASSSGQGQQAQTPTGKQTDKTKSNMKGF
Procedure, shortened: as §1

T1 sequence (Q8WU08 whole entry): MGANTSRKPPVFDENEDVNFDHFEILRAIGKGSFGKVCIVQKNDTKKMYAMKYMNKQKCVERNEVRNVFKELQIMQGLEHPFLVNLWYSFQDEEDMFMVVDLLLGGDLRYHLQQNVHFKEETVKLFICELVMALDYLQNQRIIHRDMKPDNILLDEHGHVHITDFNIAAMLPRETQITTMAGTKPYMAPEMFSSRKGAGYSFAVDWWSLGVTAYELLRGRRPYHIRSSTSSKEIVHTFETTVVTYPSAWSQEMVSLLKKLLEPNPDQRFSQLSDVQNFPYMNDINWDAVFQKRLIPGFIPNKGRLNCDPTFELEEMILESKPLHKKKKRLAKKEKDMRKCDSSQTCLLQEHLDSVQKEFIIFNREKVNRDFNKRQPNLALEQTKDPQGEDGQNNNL

C=CC(=O)Nc1cc(-c2cc(-c3cc4c([nH]3)CCNC4=O)ccn2)ccc1OC(F)(F)F [compound 11] was tested. Which inhibition at 0.01 µM ([1]; 10 nM) did it give?
Its inhibition at 0.01 µM is 3%.

What about the inhibition at 0.1 µM ([1]; 100 nM) of the same molecule?
Its inhibition at 0.1 µM is 10%.

What about the inhibition at 1 µM ([1]; 1000 nM) of the same molecule?
Its inhibition at 1 µM is 7%.

What about the inhibition at 0.01 µM ([2]; 10 nM) of the same molecule?
The inhibition at 0.01 µM was -2%.

And the inhibition at 0.1 µM ([2]; 100 nM)?
The inhibition at 0.1 µM was -1%.

What about the inhibition at 1 µM ([2]; 1000 nM) of the same molecule?
Its inhibition at 1 µM is -13%.

What about the inhibition at 0.01 µM ([3]; 10 nM) of the same molecule?
The inhibition at 0.01 µM was 9%.

And the inhibition at 0.1 µM ([3]; 100 nM)?
The inhibition at 0.1 µM was 4%.

And the inhibition at 1 µM ([3]; 1000 nM)?
The inhibition at 1 µM was 33%.

What about the inhibition at 0.01 µM ([4]; 10 nM) of the same molecule?
Its inhibition at 0.01 µM is -15%.

And the inhibition at 0.1 µM ([4]; 100 nM)?
The inhibition at 0.1 µM was -3%.

What about the inhibition at 1 µM ([4]; 1000 nM) of the same molecule?
The inhibition at 1 µM was 6%.

And the inhibition at 0.01 µM ([5]; 10 nM)?
The inhibition at 0.01 µM was -11%.

What about the inhibition at 0.1 µM ([5]; 100 nM) of the same molecule?
The inhibition at 0.1 µM was -5%.

What about the inhibition at 1 µM ([5]; 1000 nM) of the same molecule?
Its inhibition at 1 µM is 6%.

And the inhibition at 0.01 µM ([6]; 10 nM)?
The inhibition at 0.01 µM was 5%.

What about the inhibition at 0.1 µM ([6]; 100 nM) of the same molecule?
The inhibition at 0.1 µM was 14%.

And the inhibition at 1 µM ([6]; 1000 nM)?
The inhibition at 1 µM was 6%.

What about the inhibition at 0.01 µM ([7]; 10 nM) of the same molecule?
Its inhibition at 0.01 µM is -2%.

What about the inhibition at 0.1 µM ([7]; 100 nM) of the same molecule?
The inhibition at 0.1 µM was -3%.

And the inhibition at 1 µM ([7]; 1000 nM)?
Its inhibition at 1 µM is -7%.

What about the inhibition at 0.01 µM ([8]; 10 nM) of the same molecule?
Its inhibition at 0.01 µM is -4%.

What about the inhibition at 0.1 µM ([8]; 100 nM) of the same molecule?
Its inhibition at 0.1 µM is -2%.

What about the inhibition at 1 µM ([8]; 1000 nM) of the same molecule?
Its inhibition at 1 µM is -5%.

What about the inhibition at 0.01 µM ([9]; 10 nM) of the same molecule?
Its inhibition at 0.01 µM is 1%.

What about the inhibition at 0.1 µM ([9]; 100 nM) of the same molecule?
The inhibition at 0.1 µM was 15%.

And the inhibition at 1 µM ([9]; 1000 nM)?
The inhibition at 1 µM was 18%.

What about the inhibition at 0.01 µM ([10]; 10 nM) of the same molecule?
Its inhibition at 0.01 µM is 15%.

What about the inhibition at 0.1 µM ([10]; 100 nM) of the same molecule?
Its inhibition at 0.1 µM is 30%.

And the inhibition at 1 µM ([10]; 1000 nM)?
The inhibition at 1 µM was 70%.

Source: publication PMC11233931, “Remodeling tumor‐associated macrophage for anti‐cancer effects by rational design of irreversible inhibition of mitogen‐activated protein kinase‐activated protein kinase 2” (MedComm, 2024)
